Test results as given in PubChem BioAssay (NCI).
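48-hour exposure; five concentrations; linearly interpolated endpoints. GI50: concentration for 50% inhibition of growth. TGI denotes the concentration required for complete inhibition of growth.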

Legend:
Test in all cases: NCI anticancer screen, dose series, 48 h
NCI/ADR-RES ovarian = system: NCI/ADR-RES ovarian
SNB-75 CNS = system: SNB-75 CNS
SF-268 CNS = system: SF-268 CNS
OVCAR-5 ovarian = system: OVCAR-5 ovarian
SR leukemia = system: SR leukemia
SF-295 CNS = system: SF-295 CNS
SNB-19 CNS = system: SNB-19 CNS
OVCAR-4 ovarian = system: OVCAR-4 ovarian
HOP-62 NSCLC = system: HOP-62 NSCLC
KM12 colon = system: KM12 colon
SW-620 colon = system: SW-620 colon
HS 578T breast = system: HS 578T breast
NCI-H23 lung = system: NCI-H23 lung
MDA-MB-468 breast = system: MDA-MB-468 breast
ACHN renal = system: ACHN renal
HOP-92 NSCLC = system: HOP-92 NSCLC
COLO 205 colon = system: COLO 205 colon
SK-OV-3 ovarian = system: SK-OV-3 ovarian
HCT-116 colon = system: HCT-116 colon
SF-539 CNS = system: SF-539 CNS
UACC-257 melanoma = system: UACC-257 melanoma
M14 melanoma = system: M14 melanoma
RXF 393 renal = system: RXF 393 renal
HL-60(TB) leukemia = system: HL-60(TB) leukemia
A498 renal = system: A498 renal
T-47D breast = system: T-47D breast
SN12C renal = system: SN12C renal
NCI-H522 lung = system: NCI-H522 lung
MDA-MB-435 = system: MDA-MB-435
MOLT-4 leukemia = system: MOLT-4 leukemia
TK-10 renal = system: TK-10 renal
SK-MEL-2 melanoma = system: SK-MEL-2 melanoma
RPMI-8226 leukemia = system: RPMI-8226 leukemia
A549 NSCLC = system: A549 NSCLC
DU-145 prostate = system: DU-145 prostate
HCC-2998 colon = system: HCC-2998 colon
PC-3 prostate = system: PC-3 prostate
MDA-MB-231 breast = system: MDA-MB-231 breast
SK-MEL-28 melanoma = system: SK-MEL-28 melanoma
HCT-15 colon = system: HCT-15 colon
K-562 leukemia = system: K-562 leukemia
U251 CNS = system: U251 CNS
LOX IMVI melanoma = system: LOX IMVI melanoma
MALME-3M melanoma = system: MALME-3M melanoma
IGROV1 ovarian = system: IGROV1 ovarian
NCI-H460 lung = system: NCI-H460 lung
SK-MEL-5 melanoma = system: SK-MEL-5 melanoma
UO-31 renal = system: UO-31 renal
BT-549 breast = system: BT-549 breast
CAKI-1 renal = system: CAKI-1 renal
UACC-62 melanoma = system: UACC-62 melanoma
HT29 colon = system: HT29 colon
NCI-H226 lung = system: NCI-H226 lung
786-0 renal = system: 786-0 renal
CCRF-CEM leukemia = system: CCRF-CEM leukemia
EKVX NSCLC = system: EKVX NSCLC
OVCAR-3 ovarian = system: OVCAR-3 ovarian
OVCAR-8 ovarian = system: OVCAR-8 ovarian
MCF7 breast = system: MCF7 breast

Work on `CN1CCc2c(sc3ncnc(N/N=C/c4cn(-c5ccccc5)nc4-c4ccc(Cl)cc4)c23)C1` yielded a GI50 (NCI/ADR-RES ovarian) of 320 nM, a TGI (NCI/ADR-RES ovarian) of 1760 nM and a GI50 (SNB-75 CNS) of 13800 nM. The TGI (SNB-75 CNS) was 60800 nM, the GI50 (SF-268 CNS) was 678 nM and the TGI (SF-268 CNS) was over 100000 nM. For the same compound, the GI50 (OVCAR-5 ovarian) was 419 nM, the TGI (OVCAR-5 ovarian) was over 100000 nM and the GI50 (SR leukemia) was 2660 nM. It also gave a TGI (SR leukemia) of over 100000 nM, a GI50 (SF-295 CNS) of 403 nM and a TGI (SF-295 CNS) of over 37700 nM. The GI50 (SNB-19 CNS) was 3280 nM, the TGI (SNB-19 CNS) was over 57300 nM and the GI50 (OVCAR-4 ovarian) was 462 nM. For the same compound, the TGI (OVCAR-4 ovarian) was 69900 nM, the GI50 (HOP-62 NSCLC) was 724 nM and the TGI (HOP-62 NSCLC) was over 84300 nM. For the same compound, the GI50 (KM12 colon) was 496 nM, the TGI (KM12 colon) was over 100000 nM and the GI50 (SW-620 colon) was 387 nM. The TGI (SW-620 colon) was over 100000 nM, the GI50 (HS 578T breast) was 15600 nM and the TGI (HS 578T breast) was over 89700 nM. For the same compound, the GI50 (NCI-H23 lung) was 326 nM, the TGI (NCI-H23 lung) was 10800 nM and the GI50 (MDA-MB-468 breast) was 208 nM. It also gave a TGI (MDA-MB-468 breast) of 595 nM, a GI50 (ACHN renal) of 481 nM and a TGI (ACHN renal) of 20400 nM. It also gave a GI50 (HOP-92 NSCLC) of 643 nM, a TGI (HOP-92 NSCLC) of 49600 nM and a GI50 (COLO 205 colon) of 406 nM. For the same compound, the TGI (COLO 205 colon) was over 100000 nM, the GI50 (SK-OV-3 ovarian) was over 36200 nM and the TGI (SK-OV-3 ovarian) was over 76100 nM. It also gave a GI50 (HCT-116 colon) of 115 nM, a GI50 (SF-539 CNS) of 345 nM and a TGI (SF-539 CNS) of 10700 nM. It also gave a GI50 (UACC-257 melanoma) of 473 nM, a TGI (UACC-257 melanoma) of over 100000 nM and a GI50 (M14 melanoma) of 598 nM. It also gave a TGI (M14 melanoma) of over 38700 nM, a GI50 (RXF 393 renal) of 3560 nM and a TGI (RXF 393 renal) of 34600 nM. It also gave a GI50 (HL-60(TB) leukemia) of 292 nM, a TGI (HL-60(TB) leukemia) of 1980 nM and a GI50 (A498 renal) of over 56700 nM. For the same compound, the TGI (A498 renal) was over 100000 nM, the GI50 (T-47D breast) was 2590 nM and the TGI (T-47D breast) was over 100000 nM. It also gave a GI50 (SN12C renal) of 340 nM, a TGI (SN12C renal) of over 100000 nM and a GI50 (NCI-H522 lung) of 323 nM. For the same compound, the TGI (NCI-H522 lung) was 5380 nM, the GI50 (MDA-MB-435) was 1610 nM and the TGI (MDA-MB-435) was over 100000 nM. For the same compound, the GI50 (MOLT-4 leukemia) was 319 nM, the TGI (MOLT-4 leukemia) was over 100000 nM and the GI50 (TK-10 renal) was 2470 nM. For the same compound, the TGI (TK-10 renal) was 38300 nM, the GI50 (SK-MEL-2 melanoma) was 990 nM and the TGI (SK-MEL-2 melanoma) was 24400 nM. It also gave a GI50 (RPMI-8226 leukemia) of 443 nM, a TGI (RPMI-8226 leukemia) of over 100000 nM and a GI50 (A549 NSCLC) of 496 nM. For the same compound, the TGI (A549 NSCLC) was over 100000 nM, the GI50 (DU-145 prostate) was 1410 nM and the TGI (DU-145 prostate) was over 100000 nM. For the same compound, the GI50 (HCC-2998 colon) was 500 nM, the TGI (HCC-2998 colon) was 34800 nM and the GI50 (PC-3 prostate) was 472 nM. For the same compound, the TGI (PC-3 prostate) was over 100000 nM, the GI50 (MDA-MB-231 breast) was 468 nM and the TGI (MDA-MB-231 breast) was 32000 nM. For the same compound, the GI50 (SK-MEL-28 melanoma) was 5560 nM, the TGI (SK-MEL-28 melanoma) was over 100000 nM and the GI50 (HCT-15 colon) was 390 nM. For the same compound, the TGI (HCT-15 colon) was over 100000 nM, the GI50 (K-562 leukemia) was 290 nM and the TGI (K-562 leukemia) was over 100000 nM. It also gave a GI50 (U251 CNS) of 688 nM, a TGI (U251 CNS) of over 54100 nM and a GI50 (LOX IMVI melanoma) of 305 nM. The TGI (LOX IMVI melanoma) was 4120 nM, the GI50 (MALME-3M melanoma) was 999 nM and the TGI (MALME-3M melanoma) was over 100000 nM. The GI50 (IGROV1 ovarian) was 379 nM, the TGI (IGROV1 ovarian) was 21100 nM and the GI50 (NCI-H460 lung) was 390 nM. The TGI (NCI-H460 lung) was 30000 nM, the GI50 (SK-MEL-5 melanoma) was 544 nM and the TGI (SK-MEL-5 melanoma) was 20500 nM. It also gave a GI50 (UO-31 renal) of 475 nM, a TGI (UO-31 renal) of 25400 nM and a GI50 (BT-549 breast) of 2890 nM. It also gave a TGI (BT-549 breast) of over 31800 nM, a GI50 (CAKI-1 renal) of 1320 nM and a TGI (CAKI-1 renal) of over 66700 nM. It also gave a GI50 (UACC-62 melanoma) of 787 nM, a TGI (UACC-62 melanoma) of 14400 nM and a GI50 (HT29 colon) of 442 nM. The TGI (HT29 colon) was 13900 nM, the GI50 (NCI-H226 lung) was 1190 nM and the TGI (NCI-H226 lung) was over 65900 nM. For the same compound, the GI50 (786-0 renal) was 588 nM, the TGI (786-0 renal) was 18000 nM and the GI50 (CCRF-CEM leukemia) was 504 nM. The TGI (CCRF-CEM leukemia) was over 100000 nM, the GI50 (EKVX NSCLC) was 313 nM and the TGI (EKVX NSCLC) was over 42600 nM. The GI50 (OVCAR-3 ovarian) was 242 nM, the TGI (OVCAR-3 ovarian) was 6220 nM and the GI50 (OVCAR-8 ovarian) was 368 nM. For the same compound, the TGI (OVCAR-8 ovarian) was over 38500 nM, the GI50 (MCF7 breast) was 223 nM and the TGI (MCF7 breast) was 635 nM.
